Reference: patent US7462600B2, “Macrolides” (Pfizer Inc, priority 2004, dated 2008)
≈ marks a conversion by molar mass, not a printed value. Where two headings read alike, the source gives them in different places.

What was measured:
Type in all cases: cell-based
[1] = test system: Streptococcus pyogenes 1079; assay: MIC, microtiter broth dilution (NCCLS M100-S14), S. pyogenes 1079 (ermB)
How it was run: (§1)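 Panel strains, including macrolide-resistant isolates and their susceptible parents where available, are exposed to serial compound dilutions in microtiter trays. Growth inhibition is scored as MIC under NCCLS M100-S14 standards.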

[2] = test system: Streptococcus pneumoniae 1016; assay: MIC, microtiter broth dilution (NCCLS M100-S14), S. pneumoniae 1016 (susceptible)
How it was run: as §1

[3] = test system: Streptococcus pneumoniae 1095; settings: microtiter broth dilution
How it was run: as §1

[4] = test system: Streptococcus pneumoniae 1175; settings: microtiter broth dilution
How it was run: as §1

[5] = test system: Haemophilus influenzae 1218; assay: MIC, microtiter broth dilution (NCCLS M100-S14), H. influenzae 1218 (susceptible)
How it was run: as §1

[6] = S. pneumoniae 1016 (susceptible)
[7] = H. influenzae 1218 (susceptible)

Compound	MIC S. pyogenes 1079 ([1]; S. pyogenes 1079 (ermB)) [µg/mL]	MIC S. pneumo. 1016 [2, 6] [µg/mL]	MIC S. pneumo. 1095 ([3]; S. pneumoniae 1095 (ermB)) [µg/mL]	MIC S. pneumo. 1175 ([4]; S. pneumoniae 1175 (mefA)) [µg/mL]	MIC H. influenzae 1218 [5, 7] [µg/mL]	MIC S. pyogenes 1079 ([1]; Streptococcus pyogenes 1079) [µg/mL]	MIC S. pneumo. 1016 ([2]; Streptococcus pneumoniae 1016) [µg/mL]	MIC S. pneumo. 1095 ([3]; Streptococcus pneumoniae 1095) [µg/mL]	MIC S. pneumo. 1175 ([4]; Streptococcus pneumoniae 1175) [µg/mL]	MIC H. influenzae 1218 ([5]; Haemophilus influenzae 1218) [µg/mL]
CC[C@H]1OC(=O)[C@H](C)C(=O)[C@H](C)[C@@H](O[C@@H]2O[C@H](C)C[C@H](N(C)C)[C@H]2O)[C@](C)(OC)C[C@@H](C)C(=O)[C@H](C)[C@H]2N(CC3(O)CN(C(=O)c4cccc5ccncc45)C3)C(=O)O[C@]12C [7.24]	>64.00	<0.06	2 (≈ 2.34 µM)	1 (≈ 1.17 µM)	2 (≈ 2.34 µM)					
CCC1OC(=O)C(C)C(=O)C(C)C(OC2OC(C)CC(N(C)C)C2O)C(C)(OC)CC(C)C(=O)C(C)C2N(C3CN(C(c4ccccc4)c4cccnc4)C3)C(=O)OC12C (single isomer, unassigned) [Example 1.67, phenyl-(pyridin-3-yl)methyl (*)]						16 (≈ 19.2 µM)	<0.06	<0.06	<0.06	0.5 (≈ 0.599 µM)
CCC1OC(=O)C(C)C(=O)C(C)C(OC2OC(C)CC(N(C)C)C2O)C(C)(OC)CC(C)C(=O)C(C)C2N(CC3CN(C(c4ccccc4)c4ccccc4)C3)C(=O)OC12C (stereo not shown) [Example 4.01, 3-descladinosyl-11,12-dideoxy-6-O-methyl-3-oxo-12,11-(oxycarbonyl-(1-(benzhydryl)-(azetidin-3-yl)-methyl)-imino)-erythromycin A]						6.25 (≈ 7.37 µM)	<0.00	0.39 (≈ 0.46 µM)	0.39 (≈ 0.46 µM)	6.25 (≈ 7.37 µM)
CCC1OC(=O)C(C)C(=O)C(C)C(OC2OC(C)CC(N(C)C)C2O)C(C)(OC)CC(C)C(=O)C(C)C2N(CC3CCN(Cc4cccc(OC)n4)C3)C(=O)OC12C (stereo not shown) [11.08]	>64.00	<0.06	<0.06	0.25 (≈ 0.306 µM)	0.5 (≈ 0.612 µM)					
CCC1OC(=O)C(C)C(=O)C(C)C(OC2OC(C)CC(N(C)C)C2O)C(C)(OC)CC(C)C(=O)C(C)C2N(CC3CCCN3C(=O)c3cc4cccnc4[nH]3)C(=O)OC12C (stereo not shown) [10.55]	32 (≈ 38.1 µM)	<0.06	<0.06	<0.06	1 (≈ 1.19 µM)					
CCC1OC(=O)C(C)C(=O)C(C)C(OC2OC(C)CC(N(C)C)C2O)C(C)(OC)CC(C)C(=O)C(C)C2N(C3CN(Cc4n[nH]c5ccccc45)C3)C(=O)OC12C (stereo not shown) [Example 1.29, 3-descladinosyl-11,12-dideoxy-6-O-methyl-3-oxo-12,11-(oxycarbonyl-(1-((indazol-3-yl)-methyl)-azetidin-3-yl)-imino)-erythromycin A]						2 (≈ 2.51 µM)	<0.06	<0.06	1 (≈ 1.25 µM)	0.5 (≈ 0.627 µM)
CCC1OC(=O)C(C)C(=O)C(C)C(OC2OC(C)CC(N(C)C)C2O)C(C)(OC)CC(C)C(=O)C(C)C2N(C3CCN(Cc4n[nH]c5ccccc45)C3)C(=O)OC12C [Example 9.09, 3-descladinosyl-11,12-dideoxy-6-O-methyl-3-oxo-12,11-(oxycarbonyl-(1-((1H-indazol-3-yl)-methyl)-(R)-pyrrolidin-3-yl)-imino)-erythromycin A]	2 (≈ 2.46 µM)	<0.06	0.25 (≈ 0.308 µM)	0.12 (≈ 0.148 µM)	0.12 (≈ 0.148 µM)					
CCC1OC(=O)C(C)C(=O)C(C)C(OC2OC(C)CC(N(C)C)C2O)C(C)(OC)CC(C)C(=O)C(C)C2N(CC3CCCN3C(=O)c3cn4ccccc4n3)C(=O)OC12C (stereo not shown) [10.54]	64 (≈ 76.2 µM)	<0.06	<0.06	0.25 (≈ 0.298 µM)	1 (≈ 1.19 µM)					
CCC1OC(=O)C(C)C(=O)C(C)C(OC2OC(C)CC(N(C)C)C2O)C(C)(OC)CC(C)C(=O)C(C)C2N(C3CN(S(=O)(=O)c4cccc5nsnc45)C3)C(=O)OC12C (stereo not shown) [Example 3.06, 3-descladinosyl-11,12-dideoxy-6-O-methyl-3-oxo-12,11-(oxycarbonyl-(1-(benzo[1,2,5]thiadiazole-4-sulfonyl)-azetidin-3-yl)-imino)erythromycin A]						1 (≈ 1.15 µM)	<0.06	<0.06	<0.06	0.12 (≈ 0.139 µM)
CCC1OC(=O)C(C)C(=O)C(C)C(OC2OC(C)CC(N(C)C)C2O)C(C)(OC)CC(C)C(=O)C(C)C2N(C3CN(C(=O)c4cccc(-c5noc(C)n5)c4)C3)C(=O)OC12C (stereo not shown) [Example 2.16, 3-(5-methyl-1,2,4-oxadiazol-3-yl)benzoyl]						>64.00	<0.06	16 (≈ 18.7 µM)	0.25 (≈ 0.293 µM)	64 (≈ 74.9 µM)
CCC1OC(=O)C(C)C(=O)C(C)C(OC2OC(C)CC(N(C)C)C2O)C(C)(OC)CC(C)C(=O)C(C)C2N(C3CN(C(=O)Nc4cccc5nccnc45)C3)C(=O)OC12C (stereo not shown) [Example 2.09, N-(quinoxalin-8-yl) aminocarbonyl]						>64.00	<0.06	16 (≈ 19.1 µM)	0.25 (≈ 0.298 µM)	8 (≈ 9.54 µM)
CCC1OC(=O)C(C)C(=O)C(C)C(OC2OC(C)CC(N(C)C)C2O)C(C)(OC)CC(C)C(=O)C(C)C2N(C3CN(Cc4ccnc5c4ncn5C)C3)C(=O)OC12C (stereo not shown) [Example 1.93, 3-descladinosyl-11,12-dideoxy-6-O-methyl-3-oxo-12,11-(oxycarbonyl-(1-(3-methyl-3H-imidazo[4,5-b]pyridine-7-methyl)-azetidin-3-yl)-imino)-erythromycin A]						1 (≈ 1.23 µM)	<0.063	<0.063	1 (≈ 1.23 µM)	2 (≈ 2.46 µM)
CC[C@H]1OC(=O)[C@H](C)[C@@H](OC(=O)N2CCCC2)[C@H](C)[C@@H](O[C@@H]2O[C@H](C)C[C@H](N(C)C)[C@H]2O)[C@](C)(OC)C[C@@H](C)C(=O)[C@H](C)[C@H]2N(CC3CN(C(=O)c4ccnc5ccccc45)C3)C(=O)O[C@]12C [Example 5.01, 2-R^2: quinoline-4-carboxyl; R^#: pyrrolidin-1-yl]						64 (≈ 68.4 µM)	<0.06	0.5 (≈ 0.534 µM)	<0.06	2 (≈ 2.14 µM)
CCC1OC(=O)C(C)C(=O)C(C)C(OC2OC(C)CC(N(C)C)C2O)C(C)(OC)CC(C)C(=O)C(C)C2N(CC3CN(Cc4ccn(-c5cccnc5)n4)C3)C(=O)OC12C.O=CO (stereo not shown) [4.30]						>64.00	<0.06	>64.00	0.25	0.5
CCC1OC(=O)C(C)C(=O)C(C)C(OC2OC(C)CC(N(C)C)C2O)C(C)(OC)CC(C)C(=O)C(C)C2N(CC3CCCN3C(=O)c3ccc4[nH]ncc4c3)C(=O)OC12C (stereo not shown) [10.32]	>64.00	<0.06	<0.06	0.5 (≈ 0.595 µM)	1 (≈ 1.19 µM)					
CCC1OC(=O)C(C)C(=O)C(C)C(OC2OC(C)CC(N(C)C)C2O)C(C)(OC)CC(C)C(=O)C(C)C2N(C3CN(S(=O)(=O)c4cccc(C#N)c4)C3)C(=O)OC12C (stereo not shown) [Example 3.10, 3-descladinosyl-11,12-dideoxy-6-O-methyl-3-oxo-12,11-(oxycarbonyl-(1-(3-cyanobenzenesulfonyl)-azetidin-3-yl)-imino)-erythromycin A]						4 (≈ 4.8 µM)	<0.06	<0.06	<0.06	0.25 (≈ 0.3 µM)
CCC1OC(=O)C(C)C(=O)C(C)C(OC2OC(C)CC(N(C)C)C2O)C(C)(OC)CC(C)C(=O)C(C)C2N(C3CN(S(=O)(=O)c4ccc(-c5nnc(C)o5)cc4)C3)C(=O)OC12C (stereo not shown) [Example 3.61, 3-descladinosyl-11,12-dideoxy-4-O-methyl-3-oxo-12,11-(oxycarbonyl-(1-(4-(5-methyl-1,3,4-oxadiazol-2-yl)benzenesulfonyl)-azetidin-3-yl)-imino)-erythromycin A]						2 (≈ 2.25 µM)	<0.06	2 (≈ 2.25 µM)	0.12 (≈ 0.135 µM)	2 (≈ 2.25 µM)
